Laboratory results as given in patent US8598145B2, “Mitochondrially delivered anti-cancer compounds” (priority 2008, dated 2013).

How the values were obtained:
[1] = system: Ras-transformed B9 cells with a defective Complex II; test: Apoptosis in Ras-transformed B1 and B9 cells (FIG. 4C); type: cell-based, Chinese hamster
Protocol: 4C—After 24 h of treatment with Complex II targeting drugs TTFA or MitoVES, Ras transformed B1 and B9 cells were assessed for apoptosis using the Annexin V binding method.
The following cell lines used in this study were obtained from ATCC, unless specified otherwise: Human T lymphoma cells Jurkat, human mesothelioma cells Meso-I, MM-BI, Ist-Mes, Ist-Mes-2 (Pass, H. I. et al. Characteristics of nine newly derived mesothelioma cell lines. Ann. Thorac. Surg. 59, 835-844 (1995)), human breast cancer cells MCF-7 (erbB2-low) and MDA-MB-453 (erbB2-high), human colorectal cells HCT-116, human hepatocarcinoma cells Huh-7, mouse mesothelioma cells AE17 (Jackaman, C. et al. IL-2 intratumoral immunotherapy enhances CD8+ T cells that mediate destruction of tumor cells and tumor-associated vasculature: a novel mechanism for IL-2. J. Immunol. 171, […] (2003), human non-malignant mesothelial cells Met-5A, […] (Claycomb, W. C. et al. HL-1 cells: a cardiac muscle cell line that contracts and retains phenotypic characteristics of the adult cardiomyocyte. Proc. Natl. Acad. Sci. USA 95, 2979-2984 […]) and H9c2, and the human endothelial-like cells EAhy926 (Edgell, C. J., McDonald, C. C. & Graham, J. B. Permanent cell line expressing human factor VIII-related antigen established by hybridization. Proc. Natl. Acad. Sci. USA 80, 3734-3737 (1983)). Jurkat cells were grown in the RPMI medium while DMEM was used for other malignant cell lines and for Met-5A cells, supplemented with 10% FCS and antibiotics. HL-1 cells, maintained in fibronectin/gelatine-coated dishes, were grown in the Claycomb medium supplemented with noradrenalin (Claycomb, W. C. et al. HL-1 cells: a cardiac muscle cell line that contracts and retains phenotypic characteristics of the adult cardiomyocyte. Proc. Natl. Acad. Sci. USA 95, 2979-2984 […]), EAhy926 cells were grown in complete DMEM supplemented with HAT (Edgell, C. J., McDonald, C. C. & Graham, J. B. Permanent cell line expressing human factor VIII-related antigen established by hybridization. Proc. Natl. Acad. Sci. USA 80, 3734-3737 (1983)). Cells deficient in mtDNA (ρ^0 phenotype) were prepared as detailed in Weber, T. et al., (Mitochondria play a central role in apoptosis induced by α-tocopheryl succinate, an agent with anticancer activity. Comparison with receptor-mediated pro-apoptotic signaling. Biochemistry 42, 4277-4291 (2003)). Acquisition of the ρ^0 phenotype was confirmed by lack of expression by the cells of the mtDNA-encoded cytochrome c oxidase subunit II (COXII not shown). […]

[2] = system: malignant cells; test: Apoptosis assays of FIG. 2 (Annexin V method); type: cell-based
Protocol: Jurkat (A, G), HCT-116 (B), MCF-7 (C), MDA-MB-453 (D), and Meso-2 cells (E) were exposed to MitoVES at concentrations 1-50 μM (A-F), or to VES4TPP or α-TOS at 50 μM (B). At the times shown, the cells were harvested and assessed for apoptosis. […] Apoptosis data shown are derived from three independent experiments and are presented as mean values±S.D., the micrographs are representative images of at least three independent experiments.
Toxicity of α-TOS, VE11S (“VES”), MitoVE3S, MitoVE5S, MitoVE7S, MitoVE9S, MitoVE11S (“MitoVES”), MitoVE11AE (“MitoVEAE”), MitoVE11F (“MitoVEF”), MitoVE11M (“MitoVEM”), and VES4TPP towards cancer cells was assessed on the basis of IC50, as detailed in Turanek, J., et al. ((2008). Liposomal formulation of vitamin E analogs as an efficient and selective anti-cancer treatment. Clin. Cancer Res. (submitted)). […]

[3] = system: EAhy926 cells; conditions: level taken from Dong et al, Cancer Res 2007; cited from earlier work

| SMILES | sensitivity to apoptosis of Ras-transformed B9 cells compared to Ras-transformed B1 cells ([1]; 24 h treatment, Annexin V binding) | sensitivity after reconstitution of Complex II function (human SDHC) in Ras-transformed B9 cells ([1]; B9 cells transfected to express human SDHC) | apoptosis in malignant versus normal equivalent cell types ([2]; FIG. 2, exception dividing endothelial cells) | fold more apoptogenic / more active than α-TOS in cancer cells ([2]; relative to α-TOS) | concentration needed for comparable levels of effects on endothelial cells [3] [µM] |
| --- | --- | --- | --- | --- | --- |
| Cc1c(C)c2c(c(C)c1OC(=O)CCC(=O)[O-])CCC(C)(CCCCCCCCCCC[P+](c1ccccc1)(c1ccccc1)c1ccccc1)O2 (centres unmarked) [MitoVE11S] | much less sensitive | restored the sensitivity | causes apoptosis selectively in malignant cells | up to 50 fold |  |
| Cc1c(C)c2c(c(C)c1OC(=O)CCC(=O)O)CC[C@@](C)(CCC[C@H](C)CCC[C@H](C)CCCC(C)C)O2 [α-TOS, α-tocopheryl succinate, reference compound] |  |  |  |  | 25 to 50 |
